# Data taken from PubChem BioAssay AID312 (DTP/NCI, 2004).
# “And” between values parts separate entries of the source, which are not always exact repeats. Equal values may be shown once. Toxic doses and inconclusive results are not listed.
# Tested on: BDF1 mice, C1498 leukemia ip, median survival T/C
# Experiment: NCI In Vivo Anticancer Drug Screen. Data for tumor model C1498 Myeloid Leukemia (intraperitoneal) in B6D2F1 (BDF1) mice
# Details: endpoint: median survival time, higher = longer survival
# Experimental: The antitumor activity of compounds was measured in mice bearing transplantable tumors. Survival or tumor size were measured and the results are expressed as the measurement made in the treated group (T) divided by the measurement made in the vehicle treated control group (C). The tumor model used in this assay is C1498 Myeloid Leukemia (intraperitoneal) in B6D2F1 (BDF1) mice
# [1] = dose: 12.5 mg/kg/injection, schedule: Q01DX010 (sc), vehicle: steriod suspending solution
# [2] = dose: 25.0 mg/kg/injection, schedule: Q01DX010 (sc), vehicle: steriod suspending solution
# [3] = dose: 50.0 mg/kg/injection, schedule: Q01DX010 (sc), vehicle: steriod suspending solution
# [4] = dose: 100.0 mg/kg/injection, schedule: Q01DX010 (sc), vehicle: steriod suspending solution
# [5] = dose: 0.5 mg/kg/injection, schedule: Q01DX010 (ip), vehicle: saline
# [6] = dose: 2.0 mg/kg/injection, schedule: Q01DX010 (ip), vehicle: saline
# [7] = dose: 4.0 mg/kg/injection, schedule: Q01DX010 (ip), vehicle: saline
# [8] = dose: 6.25 mg/kg/injection, schedule: Q01DX010 (ip), vehicle: saline
# [9] = dose: 12.5 mg/kg/injection, schedule: Q01DX010 (ip), vehicle: saline
# [10] = dose: 25.0 mg/kg/injection, schedule: Q01DX010 (ip), vehicle: saline
# [11] = dose: 8.0 mg/kg/injection, schedule: Q01DX010 (ip), vehicle: saline
# [12] = dose: 16.0 mg/kg/injection, schedule: Q01DX010 (ip), vehicle: saline
# [13] = dose: 32.0 mg/kg/injection, schedule: Q01DX010 (ip), vehicle: saline
# [14] = dose: 5.0 mg/kg/injection, schedule: Q01DX010 (ip), vehicle: saline
# [15] = dose: 10.0 mg/kg/injection, schedule: Q01DX010 (ip), vehicle: saline
# [16] = dose: 40.0 mg/kg/injection, schedule: Q01DX010 (ip), vehicle: saline
# [17] = dose: 20.0 mg/kg/injection, schedule: Q01DX010 (ip), vehicle: saline
# [18] = dose: 50.0 mg/kg/injection, schedule: Q01DX010 (ip), vehicle: saline
# [19] = dose: 100.0 mg/kg/injection, schedule: Q01DX010 (ip), vehicle: saline
# [20] = dose: 2.5 mg/kg/injection, schedule: Q01DX010 (ip), vehicle: saline
# [21] = dose: 125.0 mg/kg/injection, schedule: Q01DX010 (ip), vehicle: saline
# [22] = dose: 250.0 mg/kg/injection, schedule: Q01DX010 (ip), vehicle: saline
compound,measurement,setting,value
CC(=O)O[C@]1(C(C)=O)CC[C@H]2[C@@H]3C[C@H](C)C4=CC(=O)C=C[C@]4(C)[C@@]3(F)[C@@H](O)C[C@@]21C,T/C,[1],100 % of control
same,T/C,[2],100 % of control
same,T/C,[3],100 % of control
same,T/C,[4],100 % of control
C[C@]12C=CC(=O)C=C1CC[C@@H]1[C@@H]2[C@@H](O)C[C@@]2(C)[C@H]1CC[C@]2(O)C(=O)CO,T/C,[1],92 % of control
same,T/C,[2],88 % of control
same,T/C,[3],92 % of control
same,T/C,[4],92 % of control
COC(=O)C[C@](O)(CCCC(C)(C)O)C(=O)O[C@@H]1C(OC)=C[C@]23CCCN2CCc2cc4c(cc2[C@H]13)OCO4,T/C,"dose: 1.5 mg/kg/injection, schedule: Q01DX009 (ip), vehicle: acid diluted with saline",96 % of control
same,T/C,"dose: 2.0 mg/kg/injection, schedule: Q01DX009 (ip), vehicle: acid diluted with saline",91 % of control
Nc1nc(F)nc2c1ncn2C1OC(CO)C(O)C1O (stereo not drawn),T/C,[5],100 % of control
same,T/C,"dose: 1.0 mg/kg/injection, schedule: Q01DX010 (ip), vehicle: saline",100 % of control and 105 % of control and 108 % of control
same,T/C,[6],100 % of control and 105 % of control and 108 % of control
same,T/C,[7],100 % of control and 108 % of control and 110 % of control
O=[n+]1c2c(n([O-])c3ccccc31)-c1cccc3cccc-2c13,T/C,"dose: 3.13 mg/kg/injection, schedule: Q01DX010 (ip), vehicle: saline",90 % of control
same,T/C,[8],90 % of control
same,T/C,[9],90 % of control
same,T/C,[10],90 % of control
O=C(Nc1ccc(C2=NCCN2)cc1)c1cccc(C(=O)Nc2ccc(C3=NCCN3)cc2)c1,T/C,[11],92 % of control and 96 % of control
same,T/C,[12],96 % of control and 103 % of control
same,T/C,[13],115 % of control and 117 % of control
NC(Cc1ccc(N(CCCl)CCCl)cc1)C(=O)O (stereo not drawn),T/C,[14],173 % of control
same,T/C,[15],88 % of control
O=c1[nH]c(=O)n(C2CC(O)C(CO)O2)cc1F (stereo not drawn),T/C,[14],109 % of control
same,T/C,[15],115 % of control and 118 % of control
same,T/C,[16],154 % of control
same,T/C,"dose: 80.0 mg/kg/injection, schedule: Q01DX010 (ip), vehicle: saline",107 % of control
Nc1nc(=S)c2ncn(C3OC(CO)C(O)C3O)c2[nH]1 (stereo not drawn),T/C,[5],113 % of control
same,T/C,[6],100 % of control and 111 % of control
same,T/C,[7],100 % of control and 90 % of control
same,T/C,[11],107 % of control
C[C@@H]1C[C@@H]([C@H](O)CC2CC(=O)NC(=O)C2)C(=O)[C@@H](C)C1,T/C,[14],104 % of control and 109 % of control
same,T/C,[15],114 % of control and 122 % of control
same,T/C,[17],113 % of control and 123 % of control
same,T/C,[16],113 % of control
CC(CCC(C)OS(C)(=O)=O)OS(C)(=O)=O (stereo not drawn),T/C,[7],109 % of control
same,T/C,[11],95 % of control
same,T/C,[12],100 % of control
same,T/C,[13],104 % of control
CO[C@@H]1[C@@H](OC2OC(C)C(OC3CC(C)(O)C(OC(=O)CC(C)C)C(C)O3)C(N(C)C)C2O)[C@@H](CC=O)C[C@@H](C)C(=O)/C=C/C2O[C@H]2C[C@@H](C)OC(=O)C[C@H]1OC(C)=O (stereo partly drawn),T/C,"dose: 37.5 mg/kg/injection, schedule: Q01DX010 (ip), vehicle: saline",109 % of control and 91 % of control
same,T/C,"dose: 75.0 mg/kg/injection, schedule: Q01DX010 (ip), vehicle: saline",100 % of control and 91 % of control
same,T/C,"dose: 150.0 mg/kg/injection, schedule: Q01DX010 (ip), vehicle: saline",95 % of control and 90 % of control
same,T/C,"dose: 300.0 mg/kg/injection, schedule: Q01DX010 (ip), vehicle: saline",91 % of control and 90 % of control
CS(=O)(=O)OCCC(=O)N1CCN(C(=O)CCOS(C)(=O)=O)CC1,T/C,[8],100 % of control and 105 % of control
same,T/C,[9],100 % of control and 110 % of control and 118 % of control
same,T/C,[10],108 % of control and 109 % of control and 110 % of control
same,T/C,[18],104 % of control and 109 % of control
same,T/C,[19],109 % of control
S=P(N1CCOCC1)(N1CC1)N1CC1,T/C,[20],95 % of control and 104 % of control
same,T/C,[14],95 % of control and 100 % of control
same,T/C,[15],100 % of control and 104 % of control
same,T/C,[17],104 % of control
O=C(Nc1ccc(NC2=NCCN2)cc1)c1ccc(C(=O)Nc2ccc(NC3=NCCN3)cc2)cc1,T/C,[6],113 % of control and 123 % of control
same,T/C,[11],172 % of control and 190 % of control
same,T/C,[12],109 % of control and 114 % of control
COc1cc(-c2ccc(Nc3ccccc3C(=O)O)c(OC)c2)ccc1Nc1ccccc1C(=O)O,T/C,[10],112 % of control
same,T/C,[18],104 % of control
same,T/C,[19],100 % of control
CC(=O)NC1=C(N2CC2)C(=O)C(NC(C)=O)=C(N2CC2)C1=O,T/C,"dose: 0.13 mg/kg/injection, schedule: Q01DX010 (ip), vehicle: saline",108 % of control
same,T/C,"dose: 125.0 micrograms/kg/injection, schedule: Q01DX010 (ip), vehicle: saline",104 % of control
same,T/C,"dose: 250.0 micrograms/kg/injection, schedule: Q01DX010 (ip), vehicle: saline",109 % of control and 116 % of control
COc1ccc2c(c1OC)C(=O)O[C@@H]2[C@H]1c2c(cc3c(c2OC)OCO3)CCN1C,T/C,"dose: 15.6 mg/kg/injection, schedule: Q01DX010 (ip), vehicle: saline",100 % of control
same,T/C,"dose: 31.3 mg/kg/injection, schedule: Q01DX010 (ip), vehicle: saline",95 % of control and 100 % of control (2×)
same,T/C,"dose: 62.5 mg/kg/injection, schedule: Q01DX010 (ip), vehicle: saline",87 % of control and 90 % of control (2×)
same,T/C,[21],86 % of control and 87 % of control and 90 % of control
same,T/C,[22],90 % of control
CC[C@]1(O)C[C@H]2CN(CCc3c([nH]c4ccccc34)[C@@](C(=O)OC)(c3cc4c(cc3OC)N(C=O)[C@H]3[C@@](O)(C(=O)OC)[C@H](OC(C)=O)[C@]5(CC)C=CCN6CC[C@]43[C@@H]65)C2)C1,T/C,"dose: 1.0 mg/kg/injection, schedule: Q04DX003 (ip), vehicle: saline",112 % of control
same,T/C,"dose: 1.5 mg/kg/injection, schedule: Q04DX003 (ip), vehicle: saline",115 % of control
same,T/C,"dose: 2.0 mg/kg/injection, schedule: Q04DX003 (ip), vehicle: saline",118 % of control
CCOC(N)=O,T/C,[21],95 % of control and 104 % of control
same,T/C,[22],95 % of control and 100 % of control
same,T/C,"dose: 500.0 mg/kg/injection, schedule: Q01DX010 (ip), vehicle: saline",95 % of control and 109 % of control
COc1cc(-c2ccc(Nc3ccccc3C(=O)O)c(OC)c2)ccc1N,T/C,[14],100 % of control
same,T/C,[15],95 % of control and 100 % of control
same,T/C,[17],100 % of control and 105 % of control
same,T/C,[16],118 % of control
Nc1nc(=S)c2[nH]cnc2[nH]1,T/C,"dose: 1.25 mg/kg/injection, schedule: Q01DX010 (ip), vehicle: other",104 % of control
same,T/C,"dose: 2.5 mg/kg/injection, schedule: Q01DX010 (ip), vehicle: other",123 % of control
same,T/C,"dose: 5.0 mg/kg/injection, schedule: Q01DX010 (ip), vehicle: other",104 % of control
same,T/C,"dose: 10.0 mg/kg/injection, schedule: Q01DX010 (ip), vehicle: other",109 % of control
same,T/C,"dose: 27.0 mg/kg/injection, schedule: Q01DX001 (ip), vehicle: alkali diluted with saline",97 % of control
same,T/C,"dose: 40.0 mg/kg/injection, schedule: Q01DX001 (ip), vehicle: alkali diluted with saline",101 % of control
same,T/C,"dose: 60.0 mg/kg/injection, schedule: Q01DX001 (ip), vehicle: alkali diluted with saline",112 % of control
same,T/C,"dose: 90.0 mg/kg/injection, schedule: Q01DX001 (ip), vehicle: alkali diluted with saline",150 % of control
N#[N+]c1cnc([O-])[nH]c1=O,T/C,"dose: 1.25 mg/kg/injection, schedule: Q01DX010 (ip), vehicle: saline",100 % of control
same,T/C,[20],122 % of control
same,T/C,[14],113 % of control
same,T/C,[15],118 % of control
CN(C)c1ccc(/C=C/c2ccnc3ccccc23)cc1,T/C,[14],100 % of control
same,T/C,[15],100 % of control and 104 % of control
same,T/C,[17],95 % of control and 100 % of control
same,T/C,[16],95 % of control and 109 % of control
CN(Cc1cnc2nc(N)nc(N)c2n1)c1ccc(C(=O)N[C@@H](CCC(=O)O)C(=O)O)cc1,T/C,"dose: 1.5 mg/kg/injection, schedule: Q01DX009 (ip), vehicle: sodium bicarbonate",110 % of control
same,T/C,"dose: 2.0 mg/kg/injection, schedule: Q01DX009 (ip), vehicle: sodium bicarbonate",124 % of control
CN(C)[C@@H]1C(=O)C(C(N)=O)=C(O)[C@@]2(O)C(=O)C3=C(O)c4c(O)cccc4C[C@H]3C[C@@H]12,T/C,"dose: 7.5 mg/kg/injection, schedule: Q01DX010 (ip), vehicle: saline",105 % of control and 116 % of control
same,T/C,"dose: 15.0 mg/kg/injection, schedule: Q01DX010 (ip), vehicle: saline",110 % of control and 112 % of control
same,T/C,"dose: 30.0 mg/kg/injection, schedule: Q01DX010 (ip), vehicle: saline",95 % of control
same,T/C,"dose: 60.0 mg/kg/injection, schedule: Q01DX010 (ip), vehicle: saline",95 % of control
